Source: patent publication US20260327244A1, “PYRIDO[4,3-D]PYRIMIDINE COMPOUNDS” (Pfizer Inc., priority 2022, published 2026)
Like-named read-outs stand apart in the source and are kept apart here.

Columns and labels:
G12D KRAS (aa1-185) [1] = biological target: T1, G12D KRAS (aa1-185) (Homo sapiens, UniProt P01116, G12D); assay: biochemical;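 also: surface plasmon resonance at 10 °C, KRAS captured on a streptavidin chip in GDP-containing buffer, compound dilution series injected, blank streptavidin surface as reference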
Experimental: (§3) SPR assay was used to measure the kinetic binding constant (KD) of Examples of the present invention.
(§4) The binding affinity and kinetics of Examples of the present invention were measured by Surface Plasmon Resonance (SPR) using Biacore 8K or 8K+ (Cytiva, Marlborough, MA) instruments. Recombinant, C-terminal site-specific biotinylated, wild-type (WT) KRAS (aa1-185), G12D KRAS (aa1-185), G12C KRAS (aa2-184), G12V KRAS (aa2-184), WT HRAS (aa2-184) and WT NRAS (aa2-185) proteins purified in presence of 1 μM GDP were used in these experiments. Binding measurements were performed parallelly in sets of either WT/G12D/G12C/G12V KRAS or WT K/H/N RAS proteins.
(§5) Biacore instrument was desorbed and docked with a Series S Sensor Chip SA. The proteins were diluted to 50 μg/mL with the assay buffer (50 mM HEPES, 150 mM NaCl, 10 μM GDP, 5 mM MgCl2, 0.5 mM TCEP, 5% glycerol, 0.02% Tween-20, 2% DMSO, pH 7.2) and immobilized at a flow rate of 3 μL/min at 10° C. with a contact time of 15 min. to capture ~3000-4000 RUs of proteins on the surface. The functionalized surface was then equilibrated with assay buffer for approximately 1 hour. Un-functionalized SA surfaces with no immobilized protein served as reference for binding kinetic analysis. Compound binding kinetics were measured in either multi-cycle or single-cycle kinetic format.
(§6) A 2-fold, 10-point serial dilution of test compounds was set-up in a 96-well microplate (Greiner; Cat #650101) with a top concentration of either 10 μM or 100 μM. Binding kinetics was measured at 10° C. by injecting serial dilution of compounds onto both reference and RAS immobilized channels at a flow rate of 100 μL/min and association time of 90 seconds. Compound dissociation was monitored for at least 400 seconds during each cycle. No additional regeneration was used. DMSO calibration curve was obtained before and after compound analysis by injecting 0-4% of DMSO in assay buffer. A suitable compound with known affinity and kinetics was tested once in every experiment as a positive control to assess activity of the captured protein on the surface.
(§7) A 3-fold, 6-point serial dilution of compounds was set-up in a deep 96-well microplate (Greiner Bio; Cat #780201) with the highest concentration of 1 μM (concentration range: 0.004-1 μM). Binding kinetics was measured at 10° C. by injecting serial dilutions of compounds in increasing order onto reference as well as RAS immobilized channels at a flow rate of 100 μL/min and association time of 120 seconds. Compound dissociation was monitored for at least 3600 seconds. Two buffer blanks were also run in a single-cycle kinetics format before the compound run for double referencing. No additional regeneration was used. DMSO calibration curve was obtained before and after compound analysis by injecting 0-4% of DMSO in the assay buffer. A suitable compound with known affinity and kinetics was tested once in every experiment as a positive control to assess activity of the captured protein on the surface.
(§8) Both MCK and SCK data were processed and analyzed using Biacore Insight evaluation software (Cytiva, Marlborough, MA)). […] The adequateness of the fit was judged by c^2 values and the randomness of residue distribution.
(§9) A geometric mean of binding constant KD was provided when an Example was tested more than once (n is testing replicate number).

WT NRAS (aa2-185) = biological target: T2, WT NRAS (aa2-185) (Homo sapiens, UniProt P01111); assay: SPR binding assay, WT NRAS; conditions: SPR at 10 °C, geometric mean when tested more than once
T2 construct: WT NRAS (aa2-185)
Description: (§1) No additional regeneration was used.
(§2) Compound dissociation was monitored for at least 3600 seconds. […] No additional regeneration was used.

G12V KRAS (aa2-184) [2] = biological target: T3, G12V KRAS (aa2-184) (Homo sapiens, UniProt P01116, G12V); assay: biochemical
Experimental: as §3, §4, §5, §6, §7, §8, §9

WT HRAS (aa2-184) = biological target: T4, WT HRAS (aa2-184) (Homo sapiens, UniProt P01112); assay: SPR binding assay, WT HRAS; conditions: SPR at 10 °C, geometric mean when tested more than once
T4 construct: WT HRAS (aa2-184)
Description: as §1, §2

[3] = biological target: T5, wild-type (WT) KRAS (aa1-185) (Homo sapiens, UniProt P01116); assay: KRAS Surface Plasma Resonance (SPR) binding assay, WT KRAS; conditions: SPR at 10 °C, geometric mean when tested more than once
T5 construct: wild-type (WT) KRAS (aa1-185)
Description: as §1, §2

G12C KRAS (aa2-184) [4] = biological target: T6, G12C KRAS (aa2-184) (Homo sapiens, UniProt P01116, G12C); assay: biochemical
Experimental: as §3, §4, §5, §6, §7, §8, §9

G12V KRAS (aa2-184) [5] = biological target: T3, G12V KRAS (aa2-184)
Experimental: as §3, §4, §5, §6, §7, §8, §9

G12C KRAS (aa2-184) [6] = biological target: T6, G12C KRAS (aa2-184)
Experimental: as §3, §4, §5, §6, §7, §8, §9

[7] = Mouse PK study, unbound plasma exposure of Example 33 after oral dosing of female NSG mice; type: in vivo; conditions: for Cav, ss, u / Cmax, u: unbound Example 33 in plasma, single oral dose 100 mg (active)/kg
Experimental: FIG. 1 provides mouse PK study results showing unbound plasma concentrations of Example 33 in female NSG mouse plasma after oral dosing of female NSG Mice at 100 mg/kg (n=3, mean+/−SD). The solution of Example 33 was prepared using a Pluronic-based formulation [2.5% (w/v) Pluronic F-68 (Poloxamer 188)], and the suspension arms of both Example 33 and Example 34 were prepared using a 0.5% (w/v) methylcellulose formulation.
The solution formulation of Example 33 was an aqueous solution with 2.5% (w/v) Pluronic F-68 (Poloxamer 188). The amorphous suspension formulations of Example 33 and Example 34 were made using in 0.5% (w/v) methylcellulose in water.

G12D KRAS (aa1-185) [8] = biological target: T1, G12D KRAS (aa1-185)
Experimental: as §3, §4, §5, §6, §7, §8, §9

[9] = suspension, relative to Example 33 suspension, 100 mg (active)/kg oral
[10] = suspension (0.5% methylcellulose)

T1 sequence (P01116 1-185 isoform P01116-2 G12D): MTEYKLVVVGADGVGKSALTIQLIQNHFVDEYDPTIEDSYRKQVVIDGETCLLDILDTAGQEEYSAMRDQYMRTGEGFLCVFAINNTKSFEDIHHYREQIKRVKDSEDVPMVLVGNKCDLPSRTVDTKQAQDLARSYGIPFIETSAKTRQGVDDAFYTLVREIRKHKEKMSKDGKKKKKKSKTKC
T6 sequence (P01116 2-184 isoform P01116-2 G12C): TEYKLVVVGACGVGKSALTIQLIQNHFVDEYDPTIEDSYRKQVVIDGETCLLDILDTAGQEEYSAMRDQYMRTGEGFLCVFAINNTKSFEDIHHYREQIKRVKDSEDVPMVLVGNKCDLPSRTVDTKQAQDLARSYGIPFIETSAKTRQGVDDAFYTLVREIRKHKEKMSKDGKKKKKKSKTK
T3 sequence (P01116 2-184 isoform P01116-2 G12V): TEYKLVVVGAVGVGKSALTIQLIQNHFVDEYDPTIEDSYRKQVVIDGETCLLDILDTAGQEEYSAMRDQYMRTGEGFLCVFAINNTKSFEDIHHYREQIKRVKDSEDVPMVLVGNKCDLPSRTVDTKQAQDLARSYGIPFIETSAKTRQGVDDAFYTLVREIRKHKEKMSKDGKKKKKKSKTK
T5 sequence (P01116 1-185 isoform P01116-2): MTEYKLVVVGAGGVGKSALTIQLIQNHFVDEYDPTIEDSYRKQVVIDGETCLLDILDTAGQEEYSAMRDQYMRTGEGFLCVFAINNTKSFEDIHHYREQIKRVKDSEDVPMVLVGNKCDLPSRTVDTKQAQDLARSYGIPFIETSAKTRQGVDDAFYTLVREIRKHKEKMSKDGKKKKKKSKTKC
T2 sequence (P01111 2-185): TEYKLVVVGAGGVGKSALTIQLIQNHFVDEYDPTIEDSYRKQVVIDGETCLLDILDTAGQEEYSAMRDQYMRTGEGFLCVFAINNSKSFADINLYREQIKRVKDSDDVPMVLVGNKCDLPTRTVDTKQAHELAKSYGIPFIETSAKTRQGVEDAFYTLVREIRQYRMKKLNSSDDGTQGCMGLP
T4 sequence (P01112 2-184): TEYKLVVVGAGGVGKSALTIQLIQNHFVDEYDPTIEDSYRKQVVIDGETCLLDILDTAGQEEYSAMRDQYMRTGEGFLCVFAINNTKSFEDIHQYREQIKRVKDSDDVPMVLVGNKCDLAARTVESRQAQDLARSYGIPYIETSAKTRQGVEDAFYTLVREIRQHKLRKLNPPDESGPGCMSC

Kd (G12D KRAS (aa1-185) [1]) | Kd (WT NRAS (aa2-185)) | Kd (G12V KRAS (aa2-184) [2]) | Kd (WT HRAS (aa2-184)) | Kd [3] | Kd (G12C KRAS (aa2-184) [4]) | Kd (G12V KRAS (aa2-184) [5]) | Kd (G12C KRAS (aa2-184) [6]) | Cav Fold Increase [7, 9] | Cmax Fold increase [7, 9] | Cav, ss, u ([7]; solution (2.5% Pluronic F-68)) | Cmax, u ([7]; solution (2.5% Pluronic F-68)) | Cav, ss, u [7, 10] | Cmax, u [7, 10] | Kd (G12D KRAS (aa1-185) [8]) | Structure (SMILES)
0.138 nM | 1000 nM | 0.098 nM | 725 nM | 0.075 nM | 0.629 nM |  |  |  |  |  |  |  |  |  | Oc1cc(-c2ncc3c(N4C[C@@H]5C[C@H](C4)[C@H](O)C5)nc(OC[C@@]45CCCN4C[C@H](F)C5)nc3c2F)c2c(Cl)cccc2c1 [Example 20, (1R,5R,6R)-3-[7-(8-chloro-3-hydroxynaphthalen-1-yl)-8-fluoro-2-{[(2R,7aS)-2-fluorotetrahydro-1H-pyrrolizin-7a(5H)-yl]methoxy}pyrido[4,3-d]pyrimidin-4-yl]-3-azabicyclo[3.2.1]octan-6-ol]
 |  |  |  | 0.023 nM |  | 0.096 nM | 0.019 nM | 1 | 1 | 0.30 nM | 0.60 nM | 0.37 nM | 0.48 nM | 0.019 nM | C#Cc1c(F)c(F)cc2cc(O)cc(-c3nc4c5c(nc(OC[C@@]67CCCN6C[C@H](F)C7)nc5c3F)N3CCCC[C@H]3CO4)c12 [Example 33, 5-ethynyl-6,7-difluoro-4-[(8aS)-4-fluoro-2-{[(2R,7aS)-2-fluorotetrahydro-1H-pyrrolizin-7a(5H)-yl]methoxy}-8,8a,9,10,11,12-hexahydro-7-oxa-1,3,6,12a-tetraazabenzo[4,5]cyclohepta[1,2,3-de]naphthalen-5-yl]naphthalen-2-ol]
